Results reported in patent US12071596B2, “Metal working fluids biocide” (Dow Global Technologies LLC, priority 2021, dated 2024).

System: mixed microbial inoculum
Assay: Microbial growth inhibition test (challenge test) in diluted metalworking fluid
Type: cell-based
Conditions: 0.91 wt. % amine in diluted metalworking fluid, 30° C.; for Challenge Test Results 2nd dose Day 14: 2nd dosing 0.5 ml mixed inoculum, read at Day 14; for Challenge Test Results 3rd dose Day 21: 3rd dosing 1 ml mixed inoculum, read at Day 21; for Challenge Test Results 4th dose Day 28: 4th dosing 1 ml mixed inoculum, read at Day 28; for Challenge Test Results 5th dose Day 35: 5th dosing 3 ml mixed inoculum, read at Day 35; for Challenge Test Results 1st dose Day 7: 50 g sample, 1st dosing 0.5 ml mixed inoculum, read at Day 7
Protocol: Test 1—Microbial Growth Inhibition Test
To test the novel disclosed microbial growth control agent the diluted metal working fluid shown in Table 1 is mixed with the various ether amines listed in Table 2. Firstly, using 250 mL glass beaker to prepare 100 g the basic diluted metalworking fluid with the recipe in Table 1 except amine ingredient, stirring for getting clear solution. Repeating the first step to get 8 basic diluted metalworking fluid solutions. Secondly, adding every kind of amine or amine combination from Table 2 as comparative example 1-2 and example 1-6. Thirdly, 50 g the comparative example 1-2 and example 1-6 into 8 petri dishes with a diameter of 10 cm and dosed with 0.5 ml of mixed microbial inoculum. Measuring the microbial growth in the petri dishes after 7 days and repeating to dose the mixed microbial inoculum and measuring them in 5 times. For the first and second dosing, 0.5 ml mixed inoculum is used; in third and fourth dosing, 1 ml mixed inoculum is used; and in the fifth dosing, 3 ml mixed inoculum is used The MWF microbial inoculum was prepared by adding 0.1 mL of each bacterial overnight broth culture and 1.0 mL of each yeast broth culture to the 10 mL of mold suspension and blending. The microbial strains used in this experiment are listed in Table 3 below (8 bacteria, 2 molds and 2 fungi). These strains were cultivated separately in nutrient broth and then blend them together. The mixed strains were then injected into each tested MWF and amine sample and mixed well.
50 grams of each of the MWF treated with amine samples (e.g., Examples 1-5 and Comparative Examples 1-2) were dosed with 0.5 ml of mixed microbial inoculum on Day 0 of this experiment. This inoculation introduces around […] colony forming units per milliliter of sample, (CFU/ml) of microorganisms.
The mixed inoculated samples where then incubated at 30° C. to determine the biocidal effect of the tested amines on the microbes. After seven days, the number of microorganisms surviving in the petri dish was observed and if the colony growth was less than 10, it was considered as PASS. After measuring the number of surviving microorganisms, another round of dosing with the mixed microbial inoculum was complete. The step of observation and subsequent dosing was done 5 times to challenge the microbial growth inhibition capabilities of the tested examples. For the first and second dosing, 0.5 ml mixed inoculum was used; in third and fourth dosing, 1 ml mixed inoculum was used; and in the fifth dosing, 3 ml mixed inoculum is used.

Row | Compound | Challenge Test Results 2nd dose Day 14 | Challenge Test Results 3rd dose Day 21 | Challenge Test Results 4th dose Day 28 | Challenge Test Results 5th dose Day 35 | Challenge Test Results 1st dose Day 7
1 | CCCCOCC(C)OCC(C)N (centres unmarked) [Example 5, 2-propanamine, 1-(2-butoxy-1-methylethoxy)-] | Pass (if the colony growth was less than 10, it was considered as PASS) | Pass (if the colony growth was less than 10, it was considered as PASS) | Pass (if the colony growth was less than 10, it was considered as PASS) | Pass (if the colony growth was less than 10, it was considered as PASS) | Pass (if the colony growth was less than 10, it was considered as PASS)
2 | CCCCOCCN [Example 3, 2-butoxy-ethanamine] | Pass (if the colony growth was less than 10, it was considered as PASS) | Pass (if the colony growth was less than 10, it was considered as PASS) | Pass (if the colony growth was less than 10, it was considered as PASS) | Pass (if the colony growth was less than 10, it was considered as PASS) | Pass (if the colony growth was less than 10, it was considered as PASS)
3 | CCCOCC(C)OCC(C)OCC(C)N (centres unmarked) [Example 4, 1-[1-methyl-2-(1-methyl-2-propoxyethoxy)ethoxy]-2-propanamine] | Pass (if the colony growth was less than 10, it was considered as PASS) | Pass (if the colony growth was less than 10, it was considered as PASS) | Pass (if the colony growth was less than 10, it was considered as PASS) | Pass (if the colony growth was less than 10, it was considered as PASS) | Pass (if the colony growth was less than 10, it was considered as PASS)
4 | CCCCOCC(C)N (centres unmarked) [Example 2, 1-butoxy-2-propanamine] | Pass (if the colony growth was less than 10, it was considered as PASS) | Pass (if the colony growth was less than 10, it was considered as PASS) | Pass (if the colony growth was less than 10, it was considered as PASS) | Pass (if the colony growth was less than 10, it was considered as PASS) | Pass (if the colony growth was less than 10, it was considered as PASS)
5 | COCC(C)N (centres unmarked) [Example 1, 1-methoxy-2-propanamine] | Pass (if the colony growth was less than 10, it was considered as PASS) | Pass (if the colony growth was less than 10, it was considered as PASS) | Pass (if the colony growth was less than 10, it was considered as PASS) | Pass (if the colony growth was less than 10, it was considered as PASS) | Pass (if the colony growth was less than 10, it was considered as PASS)
6 | CC(C)(N)CO [compound 2, 2-amino-2-methyl-1-propanol, reference compound] | Pass (if the colony growth was less than 10, it was considered as PASS) | Pass (if the colony growth was less than 10, it was considered as PASS) | Pass (if the colony growth was less than 10, it was considered as PASS) | Pass (if the colony growth was less than 10, it was considered as PASS) | Pass (if the colony growth was less than 10, it was considered as PASS)
7 | CCCOCC(C)OCC(C)N (centres unmarked) [Example 6, 1-(1-methyl-2-propoxyethoxy)-2-propanamine] | Pass (if the colony growth was less than 10, it was considered as PASS) | Pass (if the colony growth was less than 10, it was considered as PASS) | Pass (if the colony growth was less than 10, it was considered as PASS) | Pass (if the colony growth was less than 10, it was considered as PASS) | Pass (if the colony growth was less than 10, it was considered as PASS)
